In US20230285556A1, “METHODS AND COMPOSITIONS FOR TREATING CANCER” (Omeros Corporation, priority 2021, published 2023):

Columns and labels:
Assay type in all cases: cell-based
[1] = test system: human CD8 T cells; assay: Example 2: flow cytometry phenotype clusters (FlowSOM) of expanded human CD8 T cells; details: 10-day culture; relative to vehicle control
Procedure: (§1) Purified human CD8 T cells were cultured in 24-well plates according to the following conditions per well: • 1 mL X-VIVO™ 15 media (Lonza) • 1 million human CD8 T cells • 2 million Human T-Activator CD3/CD28 Dynabeads® (ThermoFisher)
(§2) and the following individual conditions: • 1. DMSO vehicle control • 2. […] 300 nM GPR174 inhibitor Compound #10 • 4.
(§3) On days 4 and 7, cultures were washed and seeded at 0.5 million cells per well with the same GPR174 and A2A inhibitor conditions, and with 100 U/mL human IL-2.
In addition to restimulation, expanded T cells were characterized by flow cytometry to evaluate expression of CCR7, CD39, CD69, TIGIT, CD45RA, LAG3, T-BET. The following detection reagents were used: anti-CD8 BV510, anti-CCR7 PE-Cy7, anti-CD39 BV605, anti-CD69 BV421, anti-TIGIT eFluor450, anti-CD45RA BV750, anti-LAG3 APC-Cy7, anti-T-BET PE-dazzle594 (all from Biolegend, Invitrogen, or BD Biosciences), and LIVE/DEAD™ Fixable Green Dead Cell Stain (ThermoFisher).
Data was collected with a Cytek Northern Lights flow cytometer, and was analyzed in FlowJo, in which automated clustering was performed on a concatenated file (containing all 4 culture conditions) with the FlowSOM plugin to generate 16 clusters. The abundance of each cluster in each cell sample was exported using the Cluster Explorer plugin.

[2] = test system: OT-I mouse CD8 T cells; assay: Example 1: OT-I CD8 T cell 10-day expansion with inhibitors, IL-2 after restimulation with EG7 cells; details: 10-day expansion with IL-7+IL-15; 300 nM Compound #10, 100 nM ZM-241385; restimulated with EG7 cells without inhibitors, 6 hours
Procedure: Purified OT-I mouse CD8 T cells (StemCell mouse CD8 T cell purification kit) were cultured in 24-well plates with C57BL/6 mouse splenocytes (pre-treated with mitomycin C to prevent growth) and pOVA according to the following condition per well: • 2 mL RP10 media (RPMI, 10% fetal calf serum, 6 mM L-Glutamine, 12.5 mM HEPES, 50 μM 2-mercaptoethanol, Penicillin, Streptomycin) • 0.2 million OT-I CD8 T cells • 1.4 million mitomycin C treated splenocytes • 100 nM pOVA
and the following individual conditions: • 1. DMSO vehicle control • 2. 300 nM GPR174 inhibitor Compound #10 • 3.
On day 3, cultures were split 1:4 with new media, the inhibitors were added back to original conditions, and mouse IL-7 and mouse IL-15 were added to 10 ng/mL. On days 5 and 8, cells were washed once, counted, and replated at 0.5 million per well with IL-7 and IL-15 and the original inhibitor conditions. On day 10, cells were counted, washed twice with 12 mL RP10, and restimulated in quadruplicate with EG7 cells (H-2 K^b thymoma expressing OVA) in 96-well round bottom plates according to the following conditions: • 0.2 mL RP10; • 0.1 million OT-I T cells from each T cell expansion condition; and • 0.5 million EG7 cells.
Supernatants were collected after 6 hours and assayed for IL-2 levels (MesoScale Discovery platform).

[3] = test system: human CD8 T cells; assay: Example 2: human CD8 T cell 10-day expansion with IL-2 and inhibitors, IL-2 after CD3/CD28 restimulation; details: 300 nM Compound #10, 100 nM ZM-241385, CD3/CD28 bead restimulation 7 hours
Procedure: as §1, §2, §3
After 7 hours of culture, supernatants were harvested and analyzed for IL-2 (MesoScale Discovery).

[4] = test system: human CD8 T cells; assay: Example 3: human CD8 T cell 10-day expansion with IL-7+IL-15 and inhibitors, IL-2 after restimulation; details: for IL-2 production following restimulation, fold vs vehicle control (FIG. 4): 300 nM Compound #10, 100 nM ZM-241385, 18 hours restimulation; for IL-2 production following restimulation, fold vs vehicle (FIG. 5): 300 nM Compound #10, 500 nM Compound #49, 100 nM ZM-241385, 18 hours restimulation
Procedure: (§4) Purified human CD8 T cells were cultured in 24-well plates with the following conditions per well: • 2 mL X-VIVO™ 15 media (Lonza) • 1 million human CD8 T cells • 2 million Human T-Activator CD3/CD28 Dynabeads® (ThermoFisher) • 10 ng/mL human IL-7 (R&D Systems) • 10 ng/mL human IL-15 (R&D Systems)
and the following individual conditions for FIG. 4: • 1. DMSO vehicle control • 2. […] 300 nM GPR174 inhibitor Compound #10 • 4.
On days 4 and 7 (FIG. 4) or days 3, 5, and 7 (FIG. 5), cultures were washed and seeded at 0.5 cells million per well with the same GPR174 and A2A inhibitor conditions, and with 10 ng/mL IL-7 and 10 ng/mL IL-15.
After 18 hours of culture, supernatants were harvested and analyzed for IL-2 (MesoScale Discovery).

[5] = test system: human CD8 T cells; assay: Example 4: human CD8 T cell expansion with GPR174, A2A, PKA or EPAC inhibitors, IL-2 after restimulation; details: for IL-2 production following restimulation, fold increase vs vehicle (FIG. 6): 300 nM Compound #10, 100 nM ZM-241385, 500 μM Rp-8-Br-cAMPS, 5 μM ESI-09, 5.5 hours restimulation
Procedure: as §4, with “(Lonza) • 0.4 million human” for “(Lonza) • 1 million human”, “T cells (Donor A) • 2” for “T cells • 2”
and the following individual conditions, ±300 nM Compound #10: • 1. DMSO vehicle control • 2. […] 500 μM Rp-8-Br-cAMPS • 4. 5 μM ESI-09
On days 3, 5, and 7, cultures were washed and seeded at 0.5 cells million per well with the same small molecule inhibitor conditions, and with IL-7 and IL-15.
After 5.5 hours of culture, supernatants were harvested and analyzed for IL-2 content (MesoScale Discovery).

## CC1CCN(c2cc(N3CCN(S(=O)(=O)c4ccccc4)CC3)c([N+](=O)[O-])cc2F)CC1 [Compound 10]
[1]
  T cell phenotype clusters enriched or reduced (CD39, CD69, TIGIT, T-BET, LAG3, CCR7, CD45RA): displayed this same trend, albeit to a lesser degree
[2]
  IL-2 production following restimulation, fold above Vehicle: 1.8 fold
[3]
  IL-2 production upon restimulation, fold increase vs vehicle: 1.7 fold
[4]
  IL-2 production following restimulation, fold vs vehicle control (FIG. 4): 3 fold
  IL-2 production following restimulation, fold vs vehicle (FIG. 5): approximately 1.3 fold
[5]
  IL-2 production following restimulation, fold increase vs vehicle (FIG. 6): negligible effect
[5]; 300 nM Compound #10 added to 500 μM Rp-8-Br-cAMPS
  IL-2 production following restimulation, effect in the presence of Rp-8-Br-cAMPS (FIG. 6): did not enhance IL-2 production

## Nc1nc(NCCc2ccc(O)cc2)nc2nc(-c3ccco3)nn12 [ZM-241385, ZM 241385]
[1]
  T cell phenotype clusters enriched or reduced (CD39, CD69, TIGIT, T-BET, LAG3, CCR7, CD45RA): relatively unchanged
[3]
  IL-2 production upon restimulation, fold increase vs vehicle: did not alter IL-2 production
[4]
  IL-2 production following restimulation, fold vs vehicle control (FIG. 4): negligible
  IL-2 production following restimulation, fold vs vehicle (FIG. 5): approximately 1.3 fold
[5]
  IL-2 production following restimulation, fold increase vs vehicle (FIG. 6): negligible effect
